Tests used:
[1] = biological target: Histone deacetylase (HDAC1 and HDAC2) (Homo sapiens, UniProt Q13547+Q92769); test: Inhibition of HDAC1/HDAC2 from human Hela nuclear extracts using [3H]acetylated histone peptide by colorimetry; format: protein assay
HCT-116 [2] = test: Cell cycle arrest in human HCT116 cells assessed as accumulation at S phase at 1 umol/L by flow cytometry; format: functional
HCT-116 [3] = test: Antiproliferative activity against human HCT116 cells after 2 days by MTT assay; format: functional, cell-based; details: HCT-116, 48 h
HCT-116 [4] = test: Cell cycle arrest in human HCT116 cells assessed as accumulation at G2 phase at 1 umol/L by flow cytometry; format: functional
HCT-116 [5] = test: Cell cycle arrest in human HCT116 cells assessed as accumulation at G1 phase at 1 umol/L by flow cytometry; format: functional
A549 = test: Antiproliferative activity against human A549 cells after 2 days by MTT assay; format: functional, cell-based; details: A549, 48 h

Structure (SMILES) | IC50 [1] | also measured
COc1cc(CCC(=O)Nc2ccc(C(=O)NO)cc2)ccc1OCc1cccc(C)c1 | 2600 nM | 
COc1cc(CCC(=O)Nc2ccc(C(=O)NO)cc2)ccc1OCc1ccccn1 | 3900 nM | 
COc1cc(CCC(=O)Nc2ccc(C(=O)NO)cc2)ccc1OCc1ccccc1 | 700 nM | IC50 (HCT-116 [3]): 120 nM; IC50 (A549): 600 nM
COc1cc(CCC(=O)Nc2ccc(C(=O)NO)cc2)ccc1OCc1ccc(Cl)cc1 | 1400 nM | 
COc1cc(CCC(=O)Nc2ccc(C(=O)NO)cc2)ccc1OCc1cccc(Cl)c1 | 1600 nM | 
COc1cc(CCC(=O)Nc2ccc(C(=O)NO)cc2)ccc1OCc1ccc(Br)cc1 | 800 nM | 
COc1cc(CCC(=O)Nc2ccc(C(=O)NO)cc2)ccc1OCc1cccc(Br)c1 | 900 nM | 
COc1cc(CCC(=O)Nc2ccc(C(=O)NO)cc2)ccc1OCc1ccccc1Br | 600 nM | IC50 (HCT-116 [3]): 100 nM; IC50 (A549): 600 nM
O=C(CCc1ccc2c(c1)OCO2)Nc1ccc(C(=O)NO)cc1 | 400 nM | Activity (HCT-116 [2]): 34.11%; IC50 (HCT-116 [3]): 60 nM; Activity (HCT-116 [4]): 48.8%; Activity (HCT-116 [5]): 17.09%; IC50 (A549): 500 nM

The next lines start with results.

IC50 [1] | Structure (SMILES) | also measured
3300 nM | COc1ccc(CCC(=O)Nc2ccc(C(=O)NO)cc2)cc1OC | 
300 nM | COc1cc(CCC(=O)Nc2ccc(C(=O)NO)cc2)ccc1OCc1cccs1 | Activity (HCT-116 [2]): 24.33%; IC50 (HCT-116 [3]): 30 nM; Activity (HCT-116 [4]): 47.16%; Activity (HCT-116 [5]): 28.51%; IC50 (A549): 80 nM
2900 nM | COc1cc(CCC(=O)Nc2ccc(C(=O)NO)cc2)ccc1OCCC(C)C | 
2900 nM | CCOc1ccc(CCC(=O)Nc2ccc(C(=O)NO)cc2)cc1OC | 
1800 nM | COc1cc(CCC(=O)Nc2ccc(C(=O)NO)cc2)ccc1OCc1ccccc1C | 
2200 nM | CCC(C)Oc1ccc(CCC(=O)Nc2ccc(C(=O)NO)cc2)cc1OC (centres undefined) | 
1700 nM | CCCOc1ccc(CCC(=O)Nc2ccc(C(=O)NO)cc2)cc1OC | 
1500 nM | COc1cc(CCC(=O)Nc2ccc(C(=O)NO)cc2)ccc1OCc1ccc(C)cc1 | 
1600 nM | CCCCOc1ccc(CCC(=O)Nc2ccc(C(=O)NO)cc2)cc1OC | 
1200 nM | COc1cc(CCC(=O)Nc2ccc(C(=O)NO)cc2)ccc1OCc1ccccc1Cl | 
4000 nM | COc1cc(CCC(=O)Nc2ccc(C(=O)NO)cc2)ccc1OC1CCCC1 | 

From ChEMBL document CHEMBL1155282, “Design, synthesis and preliminary biological evaluation of N-hydroxy-4-(3-phenylpropanamido)benzamide (HPPB) derivatives as novel histone deacetylase inhibitors” (Eur J Med Chem, 2009)
